Assay results reported in patent publication US20230271995A1, “METHODS FOR PRODUCING DIHYDRONICOTINAMIDE RIBOSIDE FROM NICOTINAMIDE RIBOSIDE CHLORIDE” (SOCIETE DES PRODUITS NESTLE S.A., priority 2020, published 2023).

What was measured:
[1] = Stability of NRH and NR aqueous solutions over 60 days of storage, remaining concentration by HPLC; settings: aqueous solution, atmosphere not stated
[2] = Thermogravimetric analysis (TGA) thermal stability under N2; format: physicochemical; settings: 25 to 900° C.
Experimental: Characterization. […] Thermogravimetric analysis (TGA) thermograms were prepared in the range of 20-900° C. at a temperature rate of 10° C. min^−1 under N2 flow, using a TA Q100 instrument.

NAD^+ = settings: NR taken as a supplement; cited from earlier work

Structure (SMILES) | degradation ([1]; 4° C., 60 days) | degradation ([1]; 25° C., 30 days) [%] | degradation ([1]; 25° C., 60 days) [%] | temperature of greatest weight loss (TGA) ([2]; 10° C. min^−1, N2 atmosphere) [°C] | boost of the level of NAD^+ (NAD^+) [%] | weight loss at the temperature of greatest weight loss (TGA) ([2]; N2 atmosphere)
NC(=O)c1ccc[n+]([C@@H]2O[C@H](CO)[C@@H](O)[C@H]2O)c1 [NR, nicotinamide riboside] | no detectable degradation | 48 | 68 | ~910 | 60 | 
NC(=O)c1ccc[n+]([C@@H]2O[C@H](CO)[C@@H](O)[C@H]2O)c1.[Cl-] [NRCl, nicotinamide riboside chloride] |  |  |  |  |  | around 65%
